Assay results published in PMC11647725, “Discovery of 4-(5-Membered)Heteroarylether-6-methylpicolinamide Negative Allosteric Modulators of Metabotropic Glutamate Receptor Subtype 5” (ACS Medicinal Chemistry Letters, 2024).

Legend:
[1] = target: Leukotriene, Cysteinyl CysLT1 (Homo sapiens, UniProt Q9Y271); experiment: Lead Profiling Screen, Eurofins Panlabs; assay type: binding; conditions: Cysteinyl CysLT1, hum, read-out: % inh at 10 μM
Rolipram = experiment: Lead Profiling Screen, Eurofins Panlabs; assay type: binding; conditions: rat
CYP 1A2 = target: T1, CYP 1A2 (Homo sapiens, UniProt P05177); experiment: P450 inhibition in pooled human liver microsomes; assay type: in vitro ADME; conditions: pooled HLM, NADPH, CYP-specific probe substrates; listed as VU6043653
T1 construct: from tissue; host or cells: pooled human liver microsomes (per the earlier reading)
T1 sequence (P05177 whole entry): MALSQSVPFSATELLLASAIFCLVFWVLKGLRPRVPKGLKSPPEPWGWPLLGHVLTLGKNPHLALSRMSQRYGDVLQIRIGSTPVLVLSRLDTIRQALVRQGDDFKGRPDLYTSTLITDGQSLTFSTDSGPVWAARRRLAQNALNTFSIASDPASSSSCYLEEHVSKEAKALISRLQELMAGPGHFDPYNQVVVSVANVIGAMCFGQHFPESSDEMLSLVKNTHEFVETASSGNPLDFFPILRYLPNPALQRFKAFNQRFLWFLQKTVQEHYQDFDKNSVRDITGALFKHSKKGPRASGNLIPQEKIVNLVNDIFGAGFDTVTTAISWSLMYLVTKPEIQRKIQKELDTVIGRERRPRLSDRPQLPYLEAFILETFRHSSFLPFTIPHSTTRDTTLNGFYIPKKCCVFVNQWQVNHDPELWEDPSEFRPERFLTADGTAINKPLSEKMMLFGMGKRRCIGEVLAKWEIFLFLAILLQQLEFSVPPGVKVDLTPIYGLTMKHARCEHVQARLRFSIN

Androgen (Testosterone) = Androgen (Testosterone) (Homo sapiens, UniProt P10275); experiment: Lead Profiling Screen, Eurofins Panlabs; assay type: binding; conditions: hum, read-out: % inh at 10 μM
Chain of Androgen (Testosterone) (P10275 whole entry): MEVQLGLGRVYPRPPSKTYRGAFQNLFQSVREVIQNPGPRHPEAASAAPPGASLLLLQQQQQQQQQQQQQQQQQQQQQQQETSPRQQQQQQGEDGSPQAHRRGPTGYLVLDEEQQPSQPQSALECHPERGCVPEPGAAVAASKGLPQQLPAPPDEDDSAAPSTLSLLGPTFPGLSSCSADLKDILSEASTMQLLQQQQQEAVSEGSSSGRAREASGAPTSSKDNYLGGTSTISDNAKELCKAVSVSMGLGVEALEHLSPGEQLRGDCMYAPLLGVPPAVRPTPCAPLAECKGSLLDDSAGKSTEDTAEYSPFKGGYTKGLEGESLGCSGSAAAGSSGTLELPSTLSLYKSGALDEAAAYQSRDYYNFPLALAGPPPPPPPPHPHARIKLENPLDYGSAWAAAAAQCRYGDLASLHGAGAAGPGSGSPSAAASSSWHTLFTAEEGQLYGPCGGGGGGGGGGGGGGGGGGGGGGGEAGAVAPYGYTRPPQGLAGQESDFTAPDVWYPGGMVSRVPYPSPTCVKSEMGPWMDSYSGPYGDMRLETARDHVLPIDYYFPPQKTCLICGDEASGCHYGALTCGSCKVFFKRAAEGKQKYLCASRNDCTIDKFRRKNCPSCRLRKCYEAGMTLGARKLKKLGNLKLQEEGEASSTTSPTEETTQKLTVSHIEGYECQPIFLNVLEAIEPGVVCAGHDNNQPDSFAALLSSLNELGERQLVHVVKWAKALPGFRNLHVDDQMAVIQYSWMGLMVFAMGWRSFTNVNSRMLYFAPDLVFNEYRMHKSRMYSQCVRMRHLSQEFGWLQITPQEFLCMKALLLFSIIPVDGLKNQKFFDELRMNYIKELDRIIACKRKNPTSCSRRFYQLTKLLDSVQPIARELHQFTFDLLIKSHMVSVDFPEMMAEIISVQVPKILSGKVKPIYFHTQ
Source text: (§1) Nonetheless, as a non-aryl/heterobiaryl acetylene mGlu5 NAM with an encouraging in vivo rodent PK profile, we wished to further assess VU6043653 as a novel chemotype. Therefore, we compared metabolites in multiple species to better understand species differences in clearance and metabolism. […] Consistent with the high plasma clearance observed in dogs, high turnover was observed more so in dog hepatocytes than any other species tested (see the Supporting Information for additional details and results). To further evaluate our novel chemotype, the off-target and safety/toxicity profiles for this compound were further investigated.
(§2) Table S2. Lead Profiling Screen – Eurofins Panlabs for VU6043653.
(§3) Assay Name Species % inh at 10 μM
(§4) Androgen (Testosterone) hum 75
(§5) Calcium Channel L-Type, Benzothiazepine rat 22
(§6) Calcium Channel L-Type, Dihydropyridine rat 1
(§7) Calcium Channel N-Type rat -8
(§8) Epidermal Growth Factor (EGF) hum -3
(§9) GABAA, Flunitrazepam, Central rat 0
(§10) GABAA, Muscimol, Central rat -5
(§11) Glutamate, Kainate rat -7
(§12) Glutamate, NMDA, Agonism rat 3
(§13) Glutamate, NMDA, Glycine rat -18
(§14) Glutamate, NMDA, Phencyclidine rat -4
(§15) Imidazoline I2, Central rat -1

Adenosine A3 = Adenosine A3 (Homo sapiens, UniProt P0DMS8); experiment: Lead Profiling Screen, Eurofins Panlabs; assay type: binding; conditions: Adenosine A3, hum, read-out: % inh at 10 μM
Chain of Adenosine A3 (P0DMS8 whole entry): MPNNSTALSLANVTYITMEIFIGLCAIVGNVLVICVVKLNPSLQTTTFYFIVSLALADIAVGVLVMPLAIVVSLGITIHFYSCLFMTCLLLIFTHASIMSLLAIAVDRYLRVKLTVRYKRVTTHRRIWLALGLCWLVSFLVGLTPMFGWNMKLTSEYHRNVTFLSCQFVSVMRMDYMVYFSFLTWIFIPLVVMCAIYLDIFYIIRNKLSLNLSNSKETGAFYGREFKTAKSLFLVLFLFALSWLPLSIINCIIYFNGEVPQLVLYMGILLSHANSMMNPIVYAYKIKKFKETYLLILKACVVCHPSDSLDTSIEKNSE
Source text: as §1, §2, §3, §4, §5, §6, §7, §8, §9, §10, §11, §12, §13, §14, §15

Prostanoid EP4 = Prostanoid EP4 (Homo sapiens, UniProt P35408); experiment: Lead Profiling Screen, Eurofins Panlabs; assay type: binding; conditions: Prostanoid EP4, hum, read-out: % inh at 10 μM
Chain of Prostanoid EP4 (P35408 whole entry): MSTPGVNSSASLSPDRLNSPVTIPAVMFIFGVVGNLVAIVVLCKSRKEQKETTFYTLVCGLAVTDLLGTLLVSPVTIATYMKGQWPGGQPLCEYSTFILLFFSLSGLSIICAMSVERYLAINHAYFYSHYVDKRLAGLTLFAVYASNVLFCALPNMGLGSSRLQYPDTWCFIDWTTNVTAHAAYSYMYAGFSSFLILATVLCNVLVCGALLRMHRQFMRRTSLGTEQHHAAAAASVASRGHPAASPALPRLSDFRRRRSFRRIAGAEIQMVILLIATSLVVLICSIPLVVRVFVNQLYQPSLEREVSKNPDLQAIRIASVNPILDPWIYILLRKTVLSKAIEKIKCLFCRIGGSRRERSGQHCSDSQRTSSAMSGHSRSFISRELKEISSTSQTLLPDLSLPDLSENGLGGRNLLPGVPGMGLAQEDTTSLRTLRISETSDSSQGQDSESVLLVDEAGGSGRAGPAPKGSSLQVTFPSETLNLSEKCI

Imidazoline I2, Central = experiment: Lead Profiling Screen, Eurofins Panlabs; assay type: binding; conditions: rat
Source text: as §1, §2
Assay Name Species % inh at 10 μM […]
as §15

[2] = Hepatocyte metabolism study; assay type: in vitro ADME; conditions: dog hepatocytes, more so than any other species tested
Source text: as §1
Table S3. Tentatively Identified Metabolites of VU6043653 in Rat, Dog, Monkey, and Human Hepatocytes (10 μM incubation for 0 and 4 hours). […]
metabolite observed with rat, dog, monkey, and human hepatocytes was M1. Overall, the major pathways for VU6043653 appear to be oxidation, demethylation, and glucuronidation.
(1 picture or pasted object on this page, not shown here)

Muscarinic M3 = Muscarinic M3 (Homo sapiens, UniProt P20309); experiment: Lead Profiling Screen, Eurofins Panlabs; assay type: binding; conditions: Muscarinic M3, hum, read-out: % inh at 10 μM
Chain of Muscarinic M3 (P20309 whole entry): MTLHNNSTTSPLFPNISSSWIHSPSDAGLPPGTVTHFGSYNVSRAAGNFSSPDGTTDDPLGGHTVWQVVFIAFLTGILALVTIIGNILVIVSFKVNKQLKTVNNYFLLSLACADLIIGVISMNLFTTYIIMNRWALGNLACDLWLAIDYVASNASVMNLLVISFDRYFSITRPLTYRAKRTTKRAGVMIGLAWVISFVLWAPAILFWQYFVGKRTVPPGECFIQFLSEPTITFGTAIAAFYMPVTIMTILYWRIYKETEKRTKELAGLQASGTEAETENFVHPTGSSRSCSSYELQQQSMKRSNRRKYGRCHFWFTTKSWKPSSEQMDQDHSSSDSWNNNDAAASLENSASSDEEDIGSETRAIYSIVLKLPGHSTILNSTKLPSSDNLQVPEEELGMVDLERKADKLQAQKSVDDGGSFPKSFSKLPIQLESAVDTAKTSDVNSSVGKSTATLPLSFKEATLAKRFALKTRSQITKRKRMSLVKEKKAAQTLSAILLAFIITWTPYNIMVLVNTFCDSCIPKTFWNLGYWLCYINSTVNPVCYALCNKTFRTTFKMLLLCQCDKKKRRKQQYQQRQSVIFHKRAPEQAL

[3] = Binding in brain homogenate from rat (equilibrium dialysis); assay type: in vitro ADME; conditions: rat, brain homogenate, rat brain homogenates, read-out: Rat fu,brain
Description: transferred to the corresponding wells of new daughter plates (96-shallow-well, V bottom) containing water (Milli-Q, 60 µL/well), and the plates were sealed in preparation for LC-MS/MS analysis (see below). fu was calculated as (analyte to IS MS peak area ratio from Trans-buffer side) / (analyte to IS MS peak area ratio from Cis-plasma side). Mean values for each species were calculated from 3 replicates.
Binding in brain homogenate from rat.
Determination of fraction unbound (f u) in brain homogenate from rat was conducted using the same methodology and procedure than described for plasma protein binding assay with the following modifications: 1) a final compound concentration of 1 μM was used, 2) naïve rat brains were homogenized in DPBS (1:3 composition of brain: DPBS, w/w) using a Mini-Bead Beater™ machine in order to obtain […]
The diluted fraction unbound (f u2) in brain was calculated as (analyte to IS MS peak area ratio from Trans-buffer side) / (analyte to IS MS peak area ratio from Cis-brain homogenate side). Undiluted fraction unbound for the brain was calculated using the following equation: […]
Mean values for each species were calculated from 3 replicates. […]

Opiate μ (OP3, MOP) = Opiate μ (OP3, MOP) (Homo sapiens, UniProt P35372); experiment: Lead Profiling Screen, Eurofins Panlabs; assay type: binding; conditions: hum, read-out: % inh at 10 μM
Chain of Opiate μ (OP3, MOP) (P35372 whole entry): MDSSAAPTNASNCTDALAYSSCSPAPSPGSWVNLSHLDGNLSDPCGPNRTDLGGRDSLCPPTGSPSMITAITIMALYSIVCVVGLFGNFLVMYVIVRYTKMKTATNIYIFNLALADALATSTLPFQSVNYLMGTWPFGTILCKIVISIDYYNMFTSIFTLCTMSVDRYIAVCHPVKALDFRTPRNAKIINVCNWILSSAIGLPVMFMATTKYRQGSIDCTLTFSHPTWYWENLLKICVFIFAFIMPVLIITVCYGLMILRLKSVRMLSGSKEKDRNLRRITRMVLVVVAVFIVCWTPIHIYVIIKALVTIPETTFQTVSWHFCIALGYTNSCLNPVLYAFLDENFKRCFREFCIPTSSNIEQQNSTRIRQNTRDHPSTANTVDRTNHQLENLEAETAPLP

[4] = In vivo dog pharmacokinetics; conditions: Dog (beagle)
Purinergic P2X = experiment: Lead Profiling Screen, Eurofins Panlabs; assay type: binding; conditions: rat

Chain of Leukotriene, Cysteinyl CysLT1 (Q9Y271 whole entry): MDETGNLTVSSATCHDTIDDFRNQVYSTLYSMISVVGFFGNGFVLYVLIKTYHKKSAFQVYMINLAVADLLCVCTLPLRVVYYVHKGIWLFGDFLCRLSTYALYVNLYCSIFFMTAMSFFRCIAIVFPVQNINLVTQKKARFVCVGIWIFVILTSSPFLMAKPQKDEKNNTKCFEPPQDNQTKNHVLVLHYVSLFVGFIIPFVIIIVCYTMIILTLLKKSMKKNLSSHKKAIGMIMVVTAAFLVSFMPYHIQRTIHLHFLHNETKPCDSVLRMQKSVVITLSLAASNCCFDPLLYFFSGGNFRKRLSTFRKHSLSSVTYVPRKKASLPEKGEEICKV

In the case of `Cc1cc(Oc2cnn(C)c2)cc(C(=O)Nc2ccc(F)cn2)n1` [22iA], the inhibition at 10 µM [1] is reported as 7%, the “% inh at 10 μM” value (Rolipram) is reported as -2% and the IC50 (CYP 1A2) is reported as ≥ 30 µM. The inhibition at 10 µM (Androgen (Testosterone)) was ≥ 70%, the inhibition at 10 µM (Adenosine A3) was ≥ 70% and the inhibition at 10 µM (Prostanoid EP4) was 8%. For the same compound, the “% inh at 10 μM” value (Imidazoline I2, Central) was -1%, the turnover in hepatocytes [2] was “high turnover” and the inhibition at 10 µM (Muscarinic M3) was -15%. It also gave a fraction unbound at 6 h, 1 µM [3] of 0.012, an inhibition at 10 µM (Opiate μ (OP3, MOP)) of 9% and a CLp ([4]; IV 0.5 mg/kg) of 38 mL/min/kg. It also gave an MRT ([4]; IV 0.5 mg/kg) of 1.41 h, a Vss ([4]; IV 0.5 mg/kg) of 3.2 L/kg and a t1/2 ([4]; IV 0.5 mg/kg) of 1.55 h. For the same compound, the “AUC0-∞” value ([4]; PO 3.0 mg/kg) was 264 ng·h/mL, the Cmax ([4]; PO 3.0 mg/kg) was 70.3 ng/mL and the Tmax ([4]; PO 3.0 mg/kg) was 0.67 h. For the same compound, the “%F” value ([4]; PO 3.0 mg/kg, oral bioavailability) was 20% and the “% inh at 10 μM” value (Purinergic P2X) was 15%.
